The test system of this assay is Desulfovibrio desulfuricans G100A. Nature of the assay: microbe, parasite or virus in culture. The format is cell-based. As to conditions: Desulfovibrio desulfuricans, G100A, read-out: % Inhib. (inhibition of sulfide production).

Structures can show the parent of a compound that is named as a salt.

Broadly, the inhibition is the percentage by which the read-out fell short of the control. With `O=C1c2ccccc2C(=O)c2c(O)c(S(=O)(=O)O)c(Oc3ccc(S(=O)(=O)O)cc3)c(O)c21` [2-Phenoxy quinizarin-3,4'-disulfonic acid, di K salt], the inhibition at 10 ppm came to 28.1%.
Turning to `CCC(=O)Nc1ccc2c(c1)C(=O)c1ccccc1C2=O` [2-Propionamidoanthraquinone], the inhibition at 30 ppm is 10.4%.
On the same count and under the same terms, with `CC(C)(C)c1ccc2c(c1)C(=O)c1ccccc1C2=O` [2-tert-butylanthraquinone] the figure was 5.2%; with `O=C(Nc1ccc(Nc2ccc(NC(=O)c3ccccc3)c3c2C(=O)c2ccccc2C3=O)c2c1C(=O)c1ccccc1C2=O)c1ccccc1` [4,4'-Dibenzamido-1,1'-dianthrimide, N,N'-[Iminobis(9,10-dihydro-9,10-dioxo-4,1-anthracenediyl)]bisbenzamide], 5.2%.
For the compound `O=C(Nc1cccc2c1C(=O)c1cccc(Nc3cccc4c3C(=O)c3cccc(NC(=O)c5ccccc5)c3C4=O)c1C2=O)c1ccccc1` [4,5'-Dibenzamido-1,1'-dianthrimide, N,N'-[Iminobis(9,10-dihydro-9,10-dioxo-5,1-anthracenediyl)]bisbenzamide], the inhibition at 30 ppm was 0%.
On to `Nc1cccc2c1C(=O)c1cccc(Cl)c1C2=O` [5-Chloro-1-aminoanthraquinone], for which the inhibition at 10 ppm is 57.1%.
With `O=C1c2cccc(S(=O)(=O)O)c2C(=O)c2cccc([N+](=O)[O-])c21` [5-Nitroanthraquinone-1-sulfonic acid, 9,10-Dihydro-5-nitro-9,10-dioxo-1-anthracenesulfonic acid], the inhibition at 10 ppm turned out to be 66%.
Regarding `O=C1c2cc(Cl)c(Cl)cc2C(=O)c2c(O)ccc(O)c21` [6,7-Dichloro-1,4-dihydroxyanthraquinone], the inhibition at 30 ppm is 5.7%.
Regarding `O=c1c2ccccc2c(=O)c2c1cc(Cl)c1[nH]c3c([nH]c12)c(Cl)cc1c(=O)c2ccccc2c(=O)c13` [7,16-Dichloroindanthrone, 7,16-Dichloro-6,15-dihydro-5,9,14,18-anthrazinetetrone], the inhibition at 10 ppm is 43.8%.
For `O=C1c2ccccc2C(=O)c2c(O)c(S(=O)(=O)O)cc(O)c21` [9,10-Dihydro-1,4-dihydroxy-9,10-dioxo-2-anthracenesulfonic acid], the inhibition at 30 ppm came out at 7.8%.
Same read-out and setting: with `O=C(O)c1cc2c(cc1C(=O)O)C(=O)c1ccccc1C2=O` [9,10-Dihydro-9,10-dioxo-2,3-anthracenedicarboxylic acid] the figure was 10%; with `O=C1c2ccc(S(=O)(=O)O)cc2C(=O)c2cc(S(=O)(=O)O)ccc21` [9,10-Dihydro-9,10-dioxo-2,7-anthracenedisulfonic acid, di Na salt], 9.1%.
`O=C1c2c(O)c(O)c(S(=O)(=O)O)c(O)c2C(=O)c2c(O)c(O)c(S(=O)(=O)O)c(O)c21` [Acid alizarin blue BB, 9,10-Dihydro-1,3,4,5,7,8-hexahydroxy-9,10-dioxo-2,6-anthracenedisulfonic acid]: the inhibition at 30 ppm was determined as 0%.
Take `Nc1c(S(=O)(=O)O)cc(Nc2ccccc2)c2c1C(=O)c1ccccc1C2=O` [Acid blue 25, 1-Amino-9,10-dihydro-9,10-dioxo-4-(phenylamino)-2-anthracenesulfonic acid, Na salt]: the inhibition at 10 ppm stood at 26%.
Still for that read-out and setting: then `CC(=O)Nc1ccc(Nc2cc(S(=O)(=O)O)c(N)c3c2C(=O)c2ccccc2C3=O)cc1` [Acid blue 40, 4-[[4-(Acetylamino)phenyl]amino]-1-amino-9,10-dihydro-9,10-dioxo-2-anthracenesulfonic acid, Na salt], with 12.5%.
On the same count and under the same terms, then `CC(=O)N(C)c1ccc(Nc2cc(S(=O)(=O)O)c(N)c3c2C(=O)c2ccccc2C3=O)cc1` [Acid blue 41, 4-[[4-(Acetylmethylamino)phenyl]amino]-1-amino-9,10-dihydro-9,10-dioxo-2-anthracenesulfonic acid, Na salt], with 0%; and `Nc1cc(S(=O)(=O)O)c(O)c2c1C(=O)c1c(O)c(S(=O)(=O)O)cc(N)c1C2=O` [Acid blue 45, 4,8-Diamino-9,10-dihydro-1,5-dihydroxy-9,10-dioxo-2,6-anthracenedisulfonic acid, di Na salt], with 0%; and `Cc1cc(C)c(S(=O)(=O)O)c(C)c1Nc1ccc(Nc2c(C)cc(C)c(S(=O)(=O)O)c2C)c2c1C(=O)c1ccccc1C2=O` [Acid blue 80, 3,3'-[(9,10-Dihydro-9,10-dioxo-1,4-anthracenediyl)adiimino]bis[2,4,6-trimethylbenzenesulfonicacid], di Na salt], with 0%.
`C=CS(=O)(=O)c1cccc(Nc2cc(S(=O)(=O)O)c(N)c3c2C(=O)c2ccccc2C3=O)c1` [Acid blue 215, 1-Amino-4-[[3-(ethenylsulfonyl)phenyl]-9,10-dihydro-9,10-dioxo]-2-anthracene sulfonic acid, monosodium salt]: the inhibition at 10 ppm is 19.7%.
Consider `Cc1ccc(Nc2ccc(Nc3ccc(C)cc3S(=O)(=O)O)c3c2C(=O)c2ccccc2C3=O)c(S(=O)(=O)O)c1` [Acid green 25, 2,2'-[(9,10-Dihydro-9,10-dioxo-1,4-anthracenediyl)-diimino]bis[5-methylbenzenesulfonic acid],di Na salt], for which the inhibition at 10 ppm is 38.8%.
Same read-out and setting: then `CCCCc1ccc(Nc2ccc(Nc3ccc(CCCC)cc3S(=O)(=O)O)c3c2C(=O)c2ccccc2C3=O)c(S(=O)(=O)O)c1` [Acid green 27, 2,2'-[(9,10-Dihydro-9,10-dioxo-1,4-anthracenediyl)-diimino]bis[5-butylbenzenesulfonic acid]], with 16.5%; and `Cc1ccc(Nc2ccc(Nc3ccc(C)cc3S(=O)(=O)O)c3c2C(=O)c2c(O)ccc(O)c2C3=O)c(S(=O)(=O)O)c1` [Acid green 41, 2,2'-[(9,10-Dihydro-5,8-dihydroxy-9,10-dioxo-1,4-anthracendiyl)diimino]bis[5-methylbenzenesulfonic acid], di Na salt], with 17.8%.
Still for that read-out and setting: then `O=C(O)c1ccccc1Nc1cccc2c1C(=O)c1cccc(Nc3ccccc3C(=O)O)c1C2=O` [Acridylic acid, 1,5-Bis(2-carboxyanilino)-9,10-anthracenedione], with 33.5%.
Take `COc1cccc2c1C(=O)c1c(O)c3c(c(O)c1C2=O)C[C@@](O)(C(=O)CO)C[C@@H]3O[C@H]1C[C@H](N)[C@H](O)[C@H](C)O1` [Adriamycin hydrochloride, 10-[(3-Amino-2,3,6-trideoxy-alpha-L-lyxo-hexopyranosyl)oxy]-7,8,9,10-tetrahydro-6,8,11-trihydroxy-8-(hydroxyacetyl)-1-methoxy-5,12-naphthacenedione hydrochloride, reference compound]: the inhibition at 30 ppm is 55.7%.
With `O=C1c2ccccc2C(=O)c2c(Nc3ccc(S(=O)(=O)O)cc3)c(Nc3ccc(S(=O)(=O)O)cc3)cc(O)c21` [Alizarin blue black B, 1,2-Bis[(4-sulfophenyl)amino]-4-hydroxy-anthraquinone], the inhibition at 10 ppm is 17.5%.
Turning to `O=C(O)CN(CC(=O)O)Cc1cc2c(c(O)c1O)C(=O)c1ccccc1C2=O` [Alizarin complexone dehydrate, (3,4-dihydroxy-2-anthraquinonyl)-methyliminodiacetic acid], the inhibition at 30 ppm came to 14.3%.
Consider `O=C1c2c(O)ccc(O)c2C(=O)c2c(O)c(O)c(O)c(O)c21` [Alizarin cyanin, 1,2,3,4,5,8-Hexahydroxyanthraquinone], for which the inhibition at 10 ppm was 40.6%.
For `O=C1c2ccccc2C(=O)c2c1cc(S(=O)(=O)O)c(O)c2O` [Alizarin red S monohydrate, 3,4-Dihydroxy-9,10-dioxo-2-anthracenesulfonic acid], the inhibition at 10 ppm is 0%.
Regarding `O=C1c2ccc(O)cc2C(=O)c2c1cc(S(=O)(=O)O)c(O)c2O` [Alizarin rubinol, 9,10-Dihydro-3,4,6-trihydroxy-9,10-dioxo-2-anthracenesulfonic acid], the inhibition at 30 ppm worked out at 0%.
For the compound `Cc1ccc(Nc2cccc3c2C(=O)c2cccc(Nc4ccc(C)cc4S(=O)(=O)O)c2C3=O)c(S(=O)(=O)O)c1` [Alizarin violet 3R, 2,2'-[(9,10-Dihydro-9,10-dioxo-1,5-anthracenediyl)-diimino]bis[5-methylbenzenesulfonic acid], di Na salt], the inhibition at 10 ppm came to 30.9%.
As to `O=C1c2ccc(O)c(O)c2C(=O)c2cccc(S(=O)(=O)O)c21` [Alizarin-5-sulfonic acid, 9,10-Dihydro-5,6-dihydroxy-9,10-dioxo-1-anthracenesulfonic acid], the inhibition at 30 ppm came out at 7.1%.
In the case of `CNc1ccc(Nc2ccc(C)cc2S(=O)(=O)O)c2c1C(=O)c1ccccc1C2=O` [Alizarine astrol B-CF, 2-[[9,10-Dihydro-4-(methylamino)-9,10-dioxo-1-anthracenyl]amino]-5-methyl-benzenesulfonic acid, monosodium salt], the inhibition at 10 ppm stood at 2.6%.
The same measure, in the same setting: with `O=C1c2cccc(O)c2C(=O)c2c(O)cc(CO)cc21` [Aloe-emodin, 1,8-Dihydroxy-3-(hydroxymethyl)-anthraquinone] the figure was 43.8%.
In the case of `O=C1c2ccccc2C(=O)c2c1cc(O)c(O)c2O` [Anthragallol, 1,2,3-trihydroxyanthraquinone], the inhibition at 30 ppm was 2.6%.
For the compound `O=C1c2ccc(O)cc2C(=O)c2c1ccc(O)c2O` [Anthrapurpurin, 1,2,7-Trihydroxyanthraquinone], the inhibition at 10 ppm is 37.5%.
Take `O=C1c2cccc(S(=O)(=O)O)c2C(=O)c2cccc(S(=O)(=O)O)c21` [Anthraquinone-1,5-disulfonic acid di Na salt hydrate]: the inhibition at 10 ppm was determined as 17.5%.
Consider `O=C1c2ccc(S(=O)(=O)O)cc2C(=O)c2ccc(S(=O)(=O)O)cc21` [Anthraquinone-2,6-disulfonic acid di Na salt], for which the inhibition at 10 ppm was determined as 9.8%.
As to `O=C(O)c1ccc2c(c1)C(=O)c1ccccc1C2=O` [Anthraquinone-2-carboxylic acid], the inhibition at 10 µg/mL stood at 22.6%.
`O=C1c2ccccc2C(=O)c2cc(S(=O)(=O)O)ccc21` [Anthraquinone-2-sulfonic acid sodium salt monohydrate]: the inhibition at 10 ppm was 17%.
On the same count and under the same terms, with `O=C1c2ccccc2C(=O)c2ccccc21` [Anthraquinone] the figure was 37.5%; with `Oc1ccc2c(O)c3ccccc3cc2c1O` [Anthrarobin, 1,2,10-Anthracenetriol], 44.4%.
